Test results: patent US20040147494A1, “Use” (priority 2001, published 2004)

Experiments:
[1] = target: T1, 11 β-HSD type 1 (Rattus norvegicus, UniProt P16232); experiment: biochemical; type: biochemical; conditions: rat liver cytosol 25 μL, 90 min, 37° C., cortisone (E) to cortisol (F), vs control without inhibitor, means n=2; for inhibition at 10 µM: read-out: % […]→F ± SD, inhibitor 10 μM, read-out: % INHIBITION E→F ± SD
T1 construct: Both the kidneys and livers were homogenised on ice in PBS- sucrose buffer; tissue Harlan Olac, Bicester, Oxon, UK (rats); host or cells: rat liver homogenate supernatant (Wistar rat)
T1 sequence (P16232 whole entry): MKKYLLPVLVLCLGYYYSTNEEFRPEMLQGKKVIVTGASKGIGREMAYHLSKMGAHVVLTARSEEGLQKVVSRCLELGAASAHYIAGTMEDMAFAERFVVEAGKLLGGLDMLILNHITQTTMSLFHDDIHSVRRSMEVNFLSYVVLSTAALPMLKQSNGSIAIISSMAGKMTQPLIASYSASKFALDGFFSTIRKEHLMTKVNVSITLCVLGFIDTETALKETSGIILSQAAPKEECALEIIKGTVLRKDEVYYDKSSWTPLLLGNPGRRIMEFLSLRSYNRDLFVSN

[2] = target: T2, 11 β-HSD type 2 (Rattus norvegicus, UniProt P50233); experiment: biochemical; conditions: rat kidney cytosol 150 μL, 60 min, 37° C., cortisol (F) to cortisone (E), vs control without inhibitor, means n=2; for inhibition at 10 µM: read-out: % […]→E ± SD, inhibitor 10 μM, read-out: % INHIBITION F→E ± SD
T2 construct: Both the kidneys and livers were homogenised on ice in PBS- sucrose buffer; tissue Harlan Olac, Bicester, Oxon, UK (rats); host or cells: rat kidney homogenate supernatant (Wistar rat)
T2 sequence (P50233 1-400): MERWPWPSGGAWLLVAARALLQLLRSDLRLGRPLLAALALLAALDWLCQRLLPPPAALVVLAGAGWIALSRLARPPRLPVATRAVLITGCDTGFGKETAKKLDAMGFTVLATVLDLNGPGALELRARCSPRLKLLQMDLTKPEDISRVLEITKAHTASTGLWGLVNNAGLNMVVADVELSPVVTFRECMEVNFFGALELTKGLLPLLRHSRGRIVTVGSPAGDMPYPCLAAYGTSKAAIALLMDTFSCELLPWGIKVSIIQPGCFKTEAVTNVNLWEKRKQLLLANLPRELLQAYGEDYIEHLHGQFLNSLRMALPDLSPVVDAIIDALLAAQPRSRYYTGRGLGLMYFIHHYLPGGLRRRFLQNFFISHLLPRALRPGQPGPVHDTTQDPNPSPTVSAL
Experimental: Enzymes—Rat livers and rat kidneys were obtained from normal Wistar rats (Harlan Olac, Bicester, Oxon,UK). Both the kidneys and livers were homogenised on ice in PBS- sucrose buffer (1 g/10 ml) using an Ultra-Turrax. After the livers and kidneys were homogenised the homogenate was centrifuged for five minutes at 4000 rpm. The supernatant obtained was removed and stored in glass vials at −20° C. The amount of protein per μl of rat liver and kidney cytosol was determined using the Bradford method.
The same procedure was used for the 11 β-HSD type 2 assay, the conversion F to E, to determine the amount of rat kidney to be used and the incubation time.
In these assays the influence of different inhibitors on the 11 β-HSD activity both in reductive (type 1) and oxidative (type 2) directions were assessed. In the reductive direction E is the substrate and F the product and visa versa in the case of oxidation. The method described here is for the oxidative direction.
The substrate solution contained about 50,000 cpm/ml ^3H—F in PBS-sucrose and 0.5 pM F. 1 ml of the substrate solution was added to each tube, the inhibitors were also added, at a 10 μM concentration, to each tube except to the “control” and “blank” tubes. 150 μL was added to all tubes except to the blanks, this was done to correct for the amount of ^3H[…]. The tubes were incubated for 60 minutes in a mechanically shaken water bath at 37° C. […] After incubation 50 μL of recovery was added to correct for the losses made in the next steps, containing 5000 cpm/50 μL of ^14C-E and 50 μg/50 μL of unlabelled E (to visualise the spot on the TLC-plate). The aqueous mixture was then extracted with 4 ml of ether (2×30 sec cycle, vortex mix). After freezing the aqueous phase, the ether (upper) layer was decanted into smaller tubes and evaporated at 45° C. until completely dry. The residue was then re-dissolved in 6 drops of ether and transferred to a TLC-plate. The TLC-plate was developed in chloroform:methanol (9:1 v/v) solvent system, the TLC-plate ran for about 90 minutes until the solvent front had moved about 18 cm. The position of the product E was visualised under UV-light and cut out from the TLC-plate and put into scintillation vials. Radioactivity was eluted over 5 minutes with 0.5 ml methanol. 0.5 ml of PBS- sucrose and 10 ml of Ecoscint were then added and vortex mixed before counting in the scintillation counter. Before counting the samples, two total activity vials were prepared. These contained 0.5 ml of the substrate solution, 50 μL of the recovery, 0.5 ml of methanol and 10 ml of Ecoscint. These two total activity vials were needed to determine the amount of ^14C-E and ^3H—F added in the beginning to make the calculations.
To look at the percentage of inhibition four different concentrations, 1, 5, 10 and 20 μM, were used. The method for both the rat liver, type 1 the reductive, and rat kidney, type 2 the oxidative, stay the same throughout the entire experiment.
In this experiment the influence of different inhibitors on the conversion E to F and F to E was determined. The reason why inhibition in both directions was examined was to make a comparison between the inhibitors and which type of 11 β-HSD they inhibit more. Thirty-two compounds were screened for their ability to inhibit 11 β-HSD type 1 (E to F) and type 2 (F to E). […] The percent of inhibition was calculated as the percentage of decrease in radio labelled ^3H-E and ^3H—F of product formed, compared with the control activity (the tubes without an inhibitor in it). All the results calculated are means, n=2.

SMILES	inhibition at 10 µM [1] [%]	inhibition at 10 µM [2] [%]	melting point [°C]	% INHIBITION F→E ± SD ([2]; inhibitor 10 μM, 10 µM) [%]	% INHIBITION E→F ± SD ([1]; inhibitor 10 μM, 10 µM) [%]
CCOC(=O)[C@@]1(C)CC[C@]2(C)CC[C@]3(C)C(=CC(=O)C4[C@@]5(C)CC[C@H](O)C(C)(C)C5CC[C@]43C)[C@@H]2C1 (stereo partly drawn) [STX196, 3β-hydroxy-11-oxo-18β-glycyrrhetinic acid ethyl ester]	80.7 ± 2.14	97.5 ± 1.37	93 to 94	–	–
CC1(C)C2CC[C@]3(C)C(C(=O)C=C4[C@@H]5C[C@@](C)(C(=O)OCC6CCCCC6)CC[C@]5(C)CC[C@]43C)[C@@]2(C)CC[C@@H]1O (stereo partly drawn) [STX198, 3β-hydroxy-11-oxo-18β-glycyrrhetinic acid cyclohexylmethyl ester]	52.3 ± 1.25	33	98 to 99	33.1 ± 1.838	–
CC(=O)C1CCC2C3CCC4=CC(=O)CC[C@]4(C)C3[C@H](OCc3ccccc3)C[C@]12C (stereo partly drawn) [STX 185, 11α-Benzyloxyprogesterone]	14	18.9 ± 4.2	207 to 210	–	16.1 ± 10.4
CC(=O)O[C@H]1CC[C@@]2(C)C(CC[C@]3(C)C2CC=C2[C@@H]4C[C@@](C)(C(=O)OCc5ccccc5)CC[C@]4(C)CC[C@]23C)C1(C)C (stereo partly drawn) [STX 354, 11-Deoxo-3β-aectoxy-18β-glycyrrhetinic acid benzyl ester]	-1.18 ± 9.22	13.6 ± 1.42	207 to 208	–	–
